The values that follow come from patent US7601739B2, “Compounds having antiestrogenic and tissue selective estrogenic properties, and compounds with anti-androgenic properties for treatment of prostate cancer and androgen receptor dependent diseases” (Virgina Commonwealth University, priority 2006, dated 2009).

The test system of this assay is MCF-7 cells. The assay is described as follows: hERα positive breast cancer cell proliferation assay. It is filed as cell-based, human. To be noted: 2 nM estrogen. On the procedure: MCF-7 or MDA-MB-231 cells were inoculated into 12-well culture plates at 10000 cells in 2 ml maintained medium per well. Cells were allowed to attach to the bottom for 24 hrs incubation, then the seeding medium was removed and replaced by the experimental medium (phenol red-free DMEM supplemented with 5% charcoal-stripped fetal bovine serum and Penicillin (100 unit/ml)/Streptomycin ([…])). After 24 hr incubation, the test molecules dissolved in DMSO were added in the wells. […] The culture was continued for 3 days and the medium and tested compounds were replaced every two days. The final cell numbers were estimated with CellTiter proliferation assay kit (Promega, Madison, Wis.) by measuring the absorbance at 570 nm, which is directly proportional to the number of living cells in the culture.
MCF-7 cell line was used to perform this assay and the description of this assay as mentioned above. […] DMSO was used as reference.

As for `C[C@]12CC[C@@H]3c4ccc(O)cc4CC[C@H]3[C@@H]1CC[C@@H]2O` [Compound E2, estradiol, reference compound], the “stimulation of growth of DMSO-treated MCF-7 cells” value is 150%.
